The values that follow come from patent publication US11497734B2, “Dual inhibitors of TIM-3 and PD-1 pathways” (Aurigene Discovery Technologies Limited, priority 2017, dated 2022).

Structures are written as SMILES.

One assay deals with recombinant human TIM-3. Put plainly: Human PBMC IFN-γ release assay in the presence of recombinant TIM-3. The format is cell-based. To be noted: 100 nM compound, plate-coated TIM-3 + anti-CD3, anti-CD28, 72 h. The protocol: Vehicle: Milli Q water; RPMI 1640 (GIBCO, Cat #11875); Fetal Bovine Serum [Hyclone, Cat #SH30071.03]; Penicillin (10000 unit/ml)-Streptomycin (10,000 μg/ml) liquid (GIBCO, Cat #15140-122); MEM Sodium Pyruvate solution 100 mM (100×). Liquid (GIBCO, Cat #11360); Nonessential amino acid (GIBCO, Cat #11140); L-Glutamine (GIBCO, Cat #25030); Recombinant human TIM-3 (rhGi24 TIM-3/B7-H5 Fc chimera (R&D systems, cat no: 7126-B7); Anti-h/m Gi24/TIM-3/B7-H5 purified mouse monoclonal IgG2B (R&D systems, cat no: MAB7126); Mouse IgG2B isotype control (R&D Systems cat no: MAB 004); Anti human-CD3 antibody (eBiosciences—16-0039); Anti human-CD28 antibody (eBiosciences—16-0289); Histopaque (density-1.077 gm/ml) (SIGMA 1077); Trypan Blue solution (SIGMA-T8154); Hemacytometer (Bright line-SIGMA Z359629); FACS Buffer containing Phosphate Buffered Saline (PBS) pH 7.2; (HiMedia TS1006) with 0.1% Bovine Serum Albumin (BSA) (SIGMA A7050) and sodium azide (SIGMA 08591); 96-well format ELISA plates (Corning 3599); 96-well format ELISA plates (Corning 3361); BD FACS caliber (E6016); Centrifuge (Eppendorf 5810 R); Human IFN-'γ Duo set ELISA kit (R&D Systems; cat no: DY-285).
Human PBMC IFN-γ Release Assay
96-well cell culture plates were pre-coated with recombinant human TIM-3 (2.5 μg/ml) and anti-human CD3 (2.5 μg/ml), and stored at 4° C. overnight. Anti-human TIM-3 and isotype control antibodies were either coated along with the TIM-3 or incubated for 30 min next day before addition of cells. On the next day, plates were washed with 1× PBS and then incubated with test compounds for 30 min. Isolated PBMC (0.1×10^6 cells/well) and anti-human CD28 antibodies (1 μg/ml) were added to the wells. The culture was further incubated for 72 h at 37° C. with 5% CO2. After 72 h of incubation the cell culture supernatants were collected after brief centrifugation at 200 g×5 min at 4° C. and processed for human IFN-γ measurement by ELISA following manufacturer's protocol (R&D Systems; DY-285).
In brief, 96-well ELISA plates were coated with 100 μl/well of capture antibody in coating buffer and incubated overnight at 4° C. Plates were washed five times with wash buffer and further blocked with 200 μl of 1× assay diluents for 1 hr at RT. Following wash step, 100 μl of cell culture supernatants were added to wells and further incubated for 2 hr at RT. Appropriate standards were also included. After wash step, plate was incubated for one hour with 100 μl/well of detection antibody. The wash step was repeated and the plate was incubated for 30 min with 100 μl/well of Avidin-HRP. The plate was washed four times with wash buffer and subsequently incubated for 15 min with 100 μl/well of substrate solution. 50 μl of stop solution was added to each well and the plate was read at 450 nm using Gen5 ver 2.05. Delta OD values were used for calculating the concentrations. The absorbance values were plotted against the standards and the concentration of IFN-γ was determined using GraphPad Prism software. Each experimental condition was carried out in triplicates.
The percent rescue of IFN-γ release of the selected compounds of present invention are set forth below wherein “A” refers to compounds having more than 70% rescue of IFN-γ release, “B” refers to compounds having rescue of IFN-γ release ranges from 50% to 69.9% and “C” refers to compounds having less than 50% rescue of IFN-γ release.

In the next assay the target is T1, PD-L1 (Mus musculus, UniProt Q9EP73).
T1 construct: Fc (Fc chimera); purchased R&D Systems 1019-B7-100
T1 sequence (Q9EP73 19-238 limits assumed): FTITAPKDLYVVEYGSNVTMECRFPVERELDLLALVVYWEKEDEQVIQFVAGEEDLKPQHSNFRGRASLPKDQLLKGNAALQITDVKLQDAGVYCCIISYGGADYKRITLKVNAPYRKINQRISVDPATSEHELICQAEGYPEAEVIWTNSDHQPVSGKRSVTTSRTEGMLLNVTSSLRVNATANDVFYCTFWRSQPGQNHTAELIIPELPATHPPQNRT
Put plainly: Rescue of mouse splenocyte proliferation in the presence of recombinant PD-L1 (CFSE proliferation assay). To be noted: 100 nM compound; anti-CD3/CD28 stimulated mouse splenocytes + PD-L1; 72 h; read-out: PDL1 (rescue of proliferation @ 100 nM). The assay is classed as cell-based. The method, then: Example 1: Rescue of Mouse Splenocyte Proliferation in the Presence of Recombinant PD-L1/PD-L2
Recombinant mouse PD-L1 (rm-PDL-1, cat no: 1019-B7-100; R&D Systems) were used as the source of PD-L1.
Mouse splenocytes harvested from 6-8 weeks old C57 BL6 mice; RPMI 1640 (GIBCO, Cat #11875); DMEM with high glucose (GIBCO, Cat #D6429); Fetal Bovine Serum [Hyclone, Cat #SH30071.03]; Penicillin (10000 unit/mL)-Streptomycin (10,000 μg/mL) Liquid (GIBCO, Cat #15140-122); MEM Sodium Pyruvate solution 100 mM (100×)), Liquid (GIBCO, Cat #11360); Nonessential amino acid (GIBCO, Cat #11140); L-Glutamine (GIBCO, Cat #25030); Anti-CD3 antibody (eBiosciences—16-0032); Anti-CD28 antibody (eBiosciences—16-0281); ACK lysis buffer (1 mL) (GIBCO, Cat #-A10492); Histopaque (density—1.083 gm/mL) (SIGMA 10831); Trypan blue solution (SIGMA-T8154); 2 mL Norm Ject Luer Lock syringe-(Sigma 2014-12); 40 μm nylon cell strainer (BD FALCON 35230); Hemacytometer (Bright line-SIGMA Z359629); FACS Buffer (PBS/0.1% BSA): Phosphate Buffered Saline (PBS) pH 7.2 (HiMedia TS1006) with 0.1% Bovine Serum Albumin (BSA) (SIGMA A7050) and sodium azide (SIGMA 08591); 5 mM stock solution of CFSE: CFSE stock solution was prepared by diluting lyophilized CFSE with 180 μL of Dimethyl sulfoxide (DMSO C2H6SO, SIGMA-D-5879) and aliquoted in to tubes for further use. Working concentrations were titrated from 10 μM to 1 μM. (eBioscience-650850-85); 0.05% Trypsin and 0.02% EDTA (SIGMA 59417C); 96-well format ELISA plates (Corning CLS3390); BD FACS caliber (E6016); Recombinant mouse B7-H1/PDL1 Fc Chimera, (rm-PD-L1 cat no: 1019-B7-100).
Splenocytes harvested in a 50 mL falcon tube by mashing mouse spleen in a 40 μm cell strainer were further treated with 1 mL ACK lysis buffer for 5 min at room temperature. After washing with 9 mL of RPMI complete media, cells were re-suspended in 3 mL of 1×PBS in a 15 mL tube. 3 mL of Histopaque was added carefully to the bottom of the tube without disturbing overlaying splenocyte suspension. After centrifuging at 800×g for 20 min at room temperature, the opaque layer of splenocytes was collected carefully without disturbing/mixing the layers. Splenocytes were washed twice with cold 1×PBS followed by total cell counting using Trypan Blue exclusion method and used further for cell based assays.
Splenocytes were cultured in RPMI complete media (RPMI+10% fetal bovine serum+1 mM sodium pyruvate+10,000 units/mL penicillin and 10,000 μg/mL streptomycin) and maintained in a CO2 incubator with 5% CO2 at 37° C.
CFSE Proliferation Assay: CFSE is a dye that passively diffuses into cells and hinds to intracellular proteins. 1×10^6 cells/mL of harvested splenocytes were treated with 5 μM of CFSE in pre-warmed 1×PBS/0.1% BSA solution for 10 min at 37° C. Excess CFSE was quenched using 5 volumes of ice-cold culture media to the cells and incubated on ice for 5 min. CFSE labeled splenocytes were further given three washes with ice cold complete RPMI media. CFSE labeled 1×10^5 splenocytes added to wells containing either MDA-MB231 cells (1×10^5 cells cultured in high glucose DMEM medium) or recombinant human PDL-1 (100 ng/mL) and test compounds. Splenocytes were stimulated with anti-mouse CD3 and anti-mouse CD28 antibody (1 μg/mL each), and the culture was further incubated for 72 h at 37° C. with 5% CO2. Cells were harvested and washed thrice with ice cold FACS buffer and % proliferation was analysed by flow cytometry with 488 nm excitation and 521 nm emission filters. Data Compilation, Processing and Inference: […]

For the molecule `CC(=O)NCCCC[C@H](NC(=O)N[C@H](C(=O)O)C(C)O)c1nc([C@@H](N)CO)no1` (some centres unmarked) [Compound 20], the “TIM-3 (rescue of IFN γ release @ 100 nM)” value in the assay on recombinant human TIM-3 is recorded as “C (less than 50% rescue of IFN-γ release)”. Also, at PD-L1, the activity at 0.1 µM was 37%.

For the molecule `CC(O)[C@H](NC(=O)N[C@@H](CC(N)=O)c1nc([C@@H](N)Cc2ccc(O)cc2)no1)C(=O)O` (some centres unmarked) [Compound 21], the “TIM-3 (rescue of IFN γ release @ 100 nM)” value in the assay on recombinant human TIM-3 was “C (less than 50% rescue of IFN-γ release)”. The activity at 0.1 µM on PD-L1 came to 50%.

As to `CC(O)[C@@H](NC(=O)N[C@@H](CC(N)=O)c1nc([C@@H](N)CO)no1)C(=O)O` (some centres unmarked) [Compound 22], the “TIM-3 (rescue of IFN γ release @ 100 nM)” value in the assay with recombinant human TIM-3 is reported as “C (less than 50% rescue of IFN-γ release)”. Also, at PD-L1, the activity at 0.1 µM stood at 90%.

Turning to `CC(O)[C@H](NC(=O)N[C@@H](CC(N)=O)c1nc(C2(N)CCCC2)no1)C(=O)O` (some centres unmarked) [Compound 23], the “TIM-3 (rescue of IFN γ release @ 100 nM)” value in the assay with recombinant human TIM-3 is “C (less than 50% rescue of IFN-γ release)”. In addition, the activity at 0.1 µM at PD-L1 was 47%.

Turning to `CC(O)[C@H](NC(=O)N[C@@H](CC(N)=O)c1nc([C@@H](O)CO)no1)C(=O)O` (some centres unmarked) [Compound 24], the “TIM-3 (rescue of IFN γ release @ 100 nM)” value in the assay with recombinant human TIM-3 is given as “A (more than 70% rescue of IFN-γ release)”. The activity at 0.1 µM on PD-L1 is 65%.

As to `N=C(N)NCCC[C@H](N)c1noc([C@H](CC(N)=O)NC(=O)N[C@@H](CO)C(=O)O)n1` [Compound 25], the “TIM-3 (rescue of IFN γ release @ 100 nM)” value in the assay with recombinant human TIM-3 is given as “A (more than 70% rescue of IFN-γ release)”. The activity at 0.1 µM at PD-L1 was 70%.

For `CN[C@@H](CO)c1noc([C@@H](N)CC(N)=O)n1` [Compound 26], the “TIM-3 (rescue of IFN γ release @ 100 nM)” value in the assay on recombinant human TIM-3 was “B (rescue of IFN-γ release ranges from 50% to 69.9%)”. On PD-L1, the activity at 0.1 µM worked out at 53%.
